Assay results published in ChEMBL document CHEMBL1201862, “PubChem BioAssay data set” (2004).
Where “and” joins values, the source holds several entries; their conditions need not be identical. Identical values can stand only once.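 These data come from cells grown in 96-well plates and exposed to compound for 48 hours at five concentrations. Abbreviation: GI50, concentration required for 50% inhibition of growth.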 Calls of active or inactive are those of the source. Cut-off read from the data, not from the text of the source: active = GI50 up to about 1.1 µM and inactive = higher.

Assays:
Experiment in all cases: NCI tumour cell line growth inhibition, 48 h
A498 = tested on: A498
CCRF-CEM = tested on: CCRF-CEM
HCC 2998 = tested on: HCC 2998
HCT-116 = tested on: HCT-116
HOP-92 = tested on: HOP-92
IGROV-1 = tested on: IGROV-1
K562 = tested on: K562
KM12 = tested on: KM12
MDA-MB-231 = tested on: MDA-MB-231
MDA-N = tested on: MDA-N
NCI-H23 = tested on: NCI-H23
OVCAR-3 = tested on: OVCAR-3
OVCAR-4 = tested on: OVCAR-4
PC-3 = tested on: PC-3
SF-268 = tested on: SF-268
SK-MEL-5 = tested on: SK-MEL-5
U-251 = tested on: U-251
EKVX = tested on: EKVX
LOX IMVI = tested on: LOX IMVI

Row | Compound | GI50 (A498) | GI50 (CCRF-CEM) | GI50 (HCC 2998) | GI50 (HCT-116) | GI50 (HOP-92) | GI50 (IGROV-1) | GI50 (K562) | GI50 (KM12) | GI50 (MDA-MB-231) | GI50 (MDA-N) | GI50 (NCI-H23) | GI50 (OVCAR-3) | GI50 (OVCAR-4) | GI50 (PC-3) | GI50 (SF-268) | GI50 (SK-MEL-5) | GI50 (U-251) | GI50 (EKVX) | GI50 (LOX IMVI)
1 | O=C(/C=C/c1ccc(O)c(O)c1)OCCc1cccc2ccccc12 | 11.5 µM (inactive) | 0.501 µM (active) | 11.1 µM (inactive) | 3.24 µM (inactive) | 10.6 µM (inactive) | 2.76 µM (inactive) | 2.77 µM (inactive) | 3.55 µM (inactive) | 2.33 µM (inactive) | 1.87 µM (inactive) | 3.72 µM (inactive) | 2.32 µM (inactive) | 10.7 µM (inactive) | 3.88 µM (inactive) | 4.76 µM (inactive) | 2.24 µM (inactive) | 6.15 µM (inactive) |  | 
2 | N#CC(NCCO)=C1C(=O)c2ccccc2C1=O | > 100 µM (inactive) |  |  | > 100 µM (inactive) | > 100 µM (inactive) | > 100 µM (inactive) | > 100 µM (inactive) | > 100 µM (inactive) | > 100 µM (inactive) | > 100 µM (inactive) | > 100 µM (inactive) | > 100 µM (inactive) | > 100 µM (inactive) | > 100 µM (inactive) | > 100 µM (inactive) | > 100 µM (inactive) | > 100 µM (inactive) | > 100 µM (inactive) | > 100 µM (inactive)
3 | CCCCN1CCC(O)(c2cc(C(=O)O)[nH]c2-c2cc(C)no2)C1=O (stereo not drawn) | > 100 µM (inactive) |  | > 100 µM (inactive) | > 100 µM (inactive) | > 100 µM (inactive) | > 100 µM (inactive) | > 100 µM (inactive) | > 100 µM (inactive) | > 100 µM (inactive) | > 100 µM (inactive) | > 100 µM (inactive) | > 100 µM (inactive) | > 100 µM (inactive) | > 100 µM (inactive) | > 100 µM (inactive) | > 100 µM (inactive) | > 100 µM (inactive) | > 100 µM (inactive) | 
4 | C=C(CCOC)CCC1CCCCC(=C)[C@H]1O (stereo partly drawn) | > 100 µM (inactive) | > 100 µM (inactive) |  | > 100 µM (inactive) | > 100 µM (inactive) | > 100 µM (inactive) | > 100 µM (inactive) | > 100 µM (inactive) | > 100 µM (inactive) | > 100 µM (inactive) | > 100 µM (inactive) | > 100 µM (inactive) | > 100 µM (inactive) | > 100 µM (inactive) | > 100 µM (inactive) | > 100 µM (inactive) | > 100 µM (inactive) | > 100 µM (inactive) | 
5 | COC(=O)C1OC(O[C@H]2CC[C@]3(C)[C@H]4CC=C5[C@@H]6CC(C)(C)CC[C@]6(C(=O)OC6OCC(O)C(O)C6OC6OC(C)C(OC7OCC(O)C(O)C7O)C(O)C6O)[C@H](O)C[C@@]5(C)[C@]4(C)CC[C@H]3C2(C)C)C(O)C(O)C1O (stereo partly drawn) | 1.75 µM (inactive) and 1.86 µM (inactive) |  | 2.82 µM (inactive) and 1.82 µM (inactive) | 4.08 µM (inactive) and 4.86 µM (inactive) | 1.88 µM (inactive) and 2.09 µM (inactive) | 15.8 µM (inactive) and 11.7 µM (inactive) | 6.28 µM (inactive) and 10.8 µM (inactive) | 3.48 µM (inactive) and 3.61 µM (inactive) | 1.91 µM (inactive) and 2.36 µM (inactive) | 1.87 µM (inactive) and 3.43 µM (inactive) | 2.14 µM (inactive) and 2.24 µM (inactive) | 11.8 µM (inactive) and 14.8 µM (inactive) |  | 4.45 µM (inactive) and 4.68 µM (inactive) | 9.29 µM (inactive) and 9.2 µM (inactive) | 6.61 µM (inactive) and 13.1 µM (inactive) | 5.55 µM (inactive) and 6.11 µM (inactive) | 3.27 µM (inactive) and 2.82 µM (inactive) | 3.36 µM (inactive) and 6.43 µM (inactive)
6 | CC1=C(O)C(=O)C2=C(C1=O)[C@@H]([C@@H](C)C/C=C/C(C)(C)O)CC[C@@H]2C | > 100 µM (inactive) | 28.8 µM (inactive) |  | 38.1 µM (inactive) |  | 69.5 µM (inactive) | 41.1 µM (inactive) | 31.2 µM (inactive) | > 100 µM (inactive) | 44.8 µM (inactive) | 49.2 µM (inactive) | 25.5 µM (inactive) |  | 51.1 µM (inactive) | 30.7 µM (inactive) | 35.2 µM (inactive) | 52.7 µM (inactive) |  | 29.6 µM (inactive)
7 | CCOC(=O)[C@H](C)OC(=O)[C@@](C)(NC(=O)c1ccccc1C(=O)OC)[C@@H]1NC=C(C(=O)OC)CS1 | > 100 µM (inactive) | 20.3 µM (inactive) | > 100 µM (inactive) | > 100 µM (inactive) |  | 80 µM (inactive) | 36.5 µM (inactive) | > 100 µM (inactive) | > 100 µM (inactive) | 21.9 µM (inactive) | > 100 µM (inactive) | > 100 µM (inactive) | > 100 µM (inactive) | > 100 µM (inactive) | > 100 µM (inactive) | 74.1 µM (inactive) | > 100 µM (inactive) | > 100 µM (inactive) | 
8 | O=C(O)C(C1NCCS1)N1C(=O)c2ccccc2C1=O (stereo not drawn) | > 100 µM (inactive) | > 100 µM (inactive) |  | > 100 µM (inactive) | > 100 µM (inactive) | > 100 µM (inactive) | > 100 µM (inactive) | > 100 µM (inactive) | > 100 µM (inactive) | > 100 µM (inactive) | > 100 µM (inactive) | > 100 µM (inactive) | > 100 µM (inactive) | > 100 µM (inactive) | > 100 µM (inactive) | > 100 µM (inactive) | > 100 µM (inactive) | > 100 µM (inactive) | > 100 µM (inactive)
9 | Cc1cc(Nc2ccc(NS(C)(=O)=O)cc2)c2c(ccc3[nH]ccc32)n1 | 21.2 µM (inactive) | 7.87 µM (inactive) |  | 17.2 µM (inactive) | 19 µM (inactive) | 28.6 µM (inactive) | 13.6 µM (inactive) | 10.8 µM (inactive) | 16.4 µM (inactive) | 17.6 µM (inactive) | 20.7 µM (inactive) | 13.1 µM (inactive) | 12.4 µM (inactive) | 20.4 µM (inactive) | 7.24 µM (inactive) | 15.1 µM (inactive) | 15.1 µM (inactive) | 36 µM (inactive) | 18.5 µM (inactive)
10 | O=C1NC2(CCCCC2)N=C2C(Cl)CCCC12Cl (stereo not drawn) | > 100 µM (inactive) | > 100 µM (inactive) | > 100 µM (inactive) |  |  | > 100 µM (inactive) | > 100 µM (inactive) | > 100 µM (inactive) | > 100 µM (inactive) | > 100 µM (inactive) | > 100 µM (inactive) | > 100 µM (inactive) | > 100 µM (inactive) | > 100 µM (inactive) | > 100 µM (inactive) | > 100 µM (inactive) | > 100 µM (inactive) | > 100 µM (inactive) | > 100 µM (inactive)
11 | COc1ccc([N+](=O)[O-])c2c(NCC(O)CO)ccnc12 (stereo not drawn) | 32.4 µM (inactive) | 87.1 µM (inactive) | 32.2 µM (inactive) | 28.9 µM (inactive) |  | 27.3 µM (inactive) | 18.5 µM (inactive) | 37.8 µM (inactive) | 88.1 µM (inactive) | 49.3 µM (inactive) | 18 µM (inactive) | 24.2 µM (inactive) | 13.5 µM (inactive) | 49.8 µM (inactive) | 35.9 µM (inactive) | 23 µM (inactive) | 50.4 µM (inactive) | 16.1 µM (inactive) | 36.1 µM (inactive)
12 | O=c1c2cc(Br)ccc2oc2ccc(Br)cc12 | > 100 µM (inactive) | > 100 µM (inactive) | > 100 µM (inactive) | 82.2 µM (inactive) | > 100 µM (inactive) | > 100 µM (inactive) | > 100 µM (inactive) | > 100 µM (inactive) | > 100 µM (inactive) | > 100 µM (inactive) | > 100 µM (inactive) | 71.8 µM (inactive) | 46.3 µM (inactive) | > 100 µM (inactive) | > 100 µM (inactive) | > 100 µM (inactive) | 64.6 µM (inactive) |  | 
13 | CN1CCN(c2ccc3[nH]c(-c4ccc5[nH]c(-c6ccc(N(C)CCCl)cc6)nc5c4)nc3c2)CC1 | 2.56 µM (inactive) | < 0.01 µM (active) | 0.461 µM (active) | 0.239 µM (active) | 0.222 µM (active) | 0.0382 µM (active) | 0.191 µM (active) | 0.811 µM (active) | 9.64 µM (inactive) | 0.226 µM (active) | 0.25 µM (active) |  | 0.305 µM (active) | 0.136 µM (active) | 0.0622 µM (active) | 0.18 µM (active) | 0.0429 µM (active) |  | 0.0311 µM (active)
14 | CCCCCCCCCCCCCCCCP(=O)(O)OP(=O)(O)OCC1OC(n2cnc3c(N)ncnc32)C(O)C1O (stereo not drawn) |  | 29.6 µM (inactive) | 22.5 µM (inactive) | 21.5 µM (inactive) | 21.4 µM (inactive) | 16.3 µM (inactive) | 25.8 µM (inactive) | 26.1 µM (inactive) | 35.1 µM (inactive) | 43.4 µM (inactive) | 26.8 µM (inactive) | 32.2 µM (inactive) | 36.3 µM (inactive) | 20.7 µM (inactive) | 30.3 µM (inactive) | 29 µM (inactive) | 20 µM (inactive) | 92 µM (inactive) | 27.4 µM (inactive)
15 | NS(=O)(=O)c1ccc(NS(=O)(=O)c2ccc(NC(=O)N(c3ccccc3)c3ccccc3)cc2)cc1 | > 100 µM (inactive) | 2.7 µM (inactive) |  | 82.4 µM (inactive) | 51.3 µM (inactive) | 59 µM (inactive) | 26.1 µM (inactive) | 60.5 µM (inactive) | > 100 µM (inactive) | 32.3 µM (inactive) | > 100 µM (inactive) | 19.1 µM (inactive) | 45.2 µM (inactive) | 51.1 µM (inactive) | 64.1 µM (inactive) | 68.2 µM (inactive) | > 100 µM (inactive) | > 100 µM (inactive) | 34.4 µM (inactive)
